Assays:
[1] = test system: PHBPU; test: Post-emergence action against PHBPU; assay type: in vivo, Pharbitis purpurea; details: post-emergence, dosage 80 g/ha
Procedure, shortened: (§1)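 Weeds grown in sandy loam in greenhouse, treated at one-leaf stage (2–3 weeks after sowing) with WP or EC formulations sprayed as aqueous suspension/emulsion at 600 to […] water with 0.2% wetting agent. Visual rating after about 3 weeks versus untreated controls, as % herbicidal action (100% = plants dead, 0% = like control).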

[2] = test system: STEME; test: Post-emergence action against STEME; assay type: in vivo, Stellaria media; details: post-emergence, dosage 80 g/ha
Procedure, shortened: as §1

[3] = test system: VERPE; test: Post-emergence action against VERPE; assay type: in vivo, Veronica persica; details: Veronica persica, 504 h, dosage 80 g/ha
Procedure, shortened: as §1

[4] = test system: HORMU; test: Pre-emergence action against HORMU; assay type: in vivo, Hordeum murinum; details: Dosage 320 g/ha
Text: (§2) Seeds of monocotyledonous and dicotyledonous weed plants and crop plants are laid out in sandy loam soil in wood-fiber pots and covered with soil. The compounds of the invention, formulated in the form of wettable powders (WP) or as emulsion concentrates (EC), are then applied to the surface of the covering soil in the form of an aqueous suspension or emulsion at a water application rate equating to […], with addition of 0.2% wetting agent. After the treatment, the pots are placed in a greenhouse and kept under good growth conditions for the trial plants. The damage to the test plants is scored visually after a test period of 3 weeks by comparison with untreated controls (herbicidal activity in percent (%): 100% activity=the plants have died, 0% activity=like control plants).

[5] = test system: ALOMY; test: Post-emergence action against ALOMY; assay type: in vivo, Alopecurus myosuroides; details: Alopecurus myosuroides, 504 h; Dosage 80 g/ha, post-emergence
Procedure, shortened: as §1

[6] = test system: ABUTH; test: Pre-emergence action against ABUTH; assay type: in vivo, Abutilon theophrasti; details: pre-emergence, dosage 320 g/ha, scored visually after 3 weeks vs untreated controls
Procedure, shortened: (§3)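 Seeds sown in sandy loam in wood-fiber pots and covered with soil. Greenhouse growth; visual damage scored after 3 weeks versus untreated controls (100% = dead, 0% = like control).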

[7] = test system: MATIN; test: Post-emergence action against MATIN; assay type: in vivo, Matricaria inodora; details: post-emergence, dosage 80 g/ha, visual assessment about 3 weeks after treatment vs untreated controls
Procedure, shortened: as §1

[8] = test system: STEME; test: Pre-emergence action against STEME; assay type: in vivo, Stellaria media; details: Dosage 320 g/ha, pre-emergence
Procedure, shortened: as §3

[9] = test system: SETVI; test: Post-emergence action against SETVI; assay type: in vivo, Setaria viridis; details: post-emergence, dosage 80 g/ha, visual assessment about 3 weeks after treatment vs untreated controls
Procedure, shortened: as §1

[10] = test system: VIOTR; test: Post-emergence action against VIOTR; assay type: in vivo, Viola tricolor; details: post-emergence, dosage 80 g/ha
Procedure, shortened: as §1

[11] = test system: CYPES; test: Post-emergence action against CYPES; assay type: in vivo, Cyperus esculentus; details: post-emergence, dosage 80 g/ha, visual assessment about 3 weeks after treatment vs untreated controls
Procedure, shortened: as §1

[12] = test system: POLCO; test: Pre-emergence action against POLCO; assay type: in vivo, Polygonum convolvulus; details: Dosage 320 g/ha, pre-emergence
Procedure, shortened: as §3

[13] = test system: VERPE; test: Pre-emergence action against VERPE; assay type: in vivo, Veronica persica; details: Dosage 320 g/ha, pre-emergence
Procedure, shortened: as §3

[14] = test system: ABUTH; test: Post-emergence action against ABUTH; assay type: in vivo, Abutilon theophrasti; details: post-emergence, dosage 80 g/ha, visual assessment about 3 weeks after treatment vs untreated controls
Procedure, shortened: as §1

[15] = test system: SETVI; test: Pre-emergence action against SETVI; assay type: in vivo, Setaria viridis; details: pre-emergence, dosage 320 g/ha, scored visually after 3 weeks vs untreated controls
Procedure, shortened: as §3

[16] = test system: ECHCG; test: Pre-emergence action against ECHCG; assay type: in vivo, Echinochloa crus-galli; details: pre-emergence, dosage 320 g/ha, scored visually after 3 weeks vs untreated controls
Procedure, shortened: as §3

[17] = test system: PHBPU; test: Pre-emergence action against PHBPU; assay type: in vivo, Pharbitis purpurea; details: Dosage 320 g/ha, pre-emergence
Procedure, shortened: as §3

[18] = test system: AMARE; test: Post-emergence action against AMARE; assay type: in vivo, Amaranthus retroflexus; details: post-emergence, dosage 80 g/ha, visual assessment about 3 weeks after treatment vs untreated controls
Procedure, shortened: as §1

[19] = test system: MATIN; test: Pre-emergence action against MATIN; assay type: in vivo, Matricaria inodora; details: Dosage 320 g/ha, pre-emergence
Procedure, shortened: as §3

[20] = test system: AMARE; test: Pre-emergence action against AMARE; assay type: in vivo, Amaranthus retroflexus; details: pre-emergence, dosage 320 g/ha, scored visually after 3 weeks vs untreated controls
Procedure, shortened: as §3

[21] = test system: LOLRI; test: Pre-emergence action against LOLRI; assay type: in vivo, Lolium rigidum; details: dosage 320 g/ha, scored visually after 3 weeks vs untreated controls
Procedure, shortened: as §3

[22] = test system: POLCO; test: Post-emergence action against POLCO; assay type: in vivo, Polygonum convolvulus; details: Fallopia convolvulus, 504 h; post-emergence, dosage 80 g/ha
Procedure, shortened: as §1

[23] = test system: ALOMY; test: Pre-emergence action against ALOMY; assay type: in vivo, Alopecurus myosuroides; details: dosage 320 g/ha, pre-emergence, scored visually after 3 weeks vs untreated controls, 100% = plants have died, 0% = like control plants
Procedure, shortened: as §3

[24] = test system: ECHCG; test: Post-emergence action against ECHCG; assay type: in vivo, Echinochloa crus-galli; details: post-emergence, dosage 80 g/ha, visual assessment about 3 weeks after treatment vs untreated controls
Procedure, shortened: as §1

[25] = test system: AVEFA; test: Pre-emergence action against AVEFA; assay type: in vivo, Avena fatua; details: dosage 320 g/ha, scored visually after 3 weeks vs untreated controls
Procedure, shortened: as §3

[26] = test system: VIOTR; test: Pre-emergence action against VIOTR; assay type: in vivo, Viola tricolor; details: Dosage 320 g/ha, pre-emergence
Procedure, shortened: as §3

[27] = test system: DIGSA; test: Pre-emergence action against DIGSA; assay type: in vivo, Digitaria sanguinalis; details: dosage 320 g/ha, scored visually after 3 weeks vs untreated controls
Text: as §2

[28] = test system: AVEFA; test: Post-emergence action against AVEFA; assay type: in vivo, Avena fatua; details: post-emergence, dosage 80 g/ha, visual assessment about 3 weeks after treatment vs untreated controls
Procedure, shortened: as §1

CSc1c(C(=O)Nc2nnnn2C)ccc(C(F)F)c1C(C)=O [1-65]
100%: pest or weed control at 80 g/ha ([1]; Ipomoea purpurea, 504 h) | pest or weed control at 80 g/ha ([2]; Stellaria media, 504 h) | pest or weed control at 80 g/ha [3] | pest or weed control at 320 g/ha ([6]; Abutilon theophrasti, 504 h, read-out: Pre-emergence action against ABUTH (herbicidal activity)) | pest or weed control at 80 g/ha ([7]; Tripleurospermum inodorum, 504 h, read-out: Post-emergence action against MATIN (herbicidal action in percent)) | pest or weed control at 320 g/ha ([8]; Stellaria media, 504 h) | pest or weed control at 80 g/ha ([9]; Setaria viridis, 504 h, read-out: Post-emergence action against SETVI (herbicidal action in percent)) | pest or weed control at 80 g/ha ([10]; Viola tricolor, 504 h) | pest or weed control at 320 g/ha ([12]; Fallopia convolvulus, 504 h) | pest or weed control at 320 g/ha ([13]; Veronica persica, 504 h) | pest or weed control at 80 g/ha ([14]; Abutilon theophrasti, 504 h, read-out: Post-emergence action against ABUTH (herbicidal action in percent)) | pest or weed control at 320 g/ha ([15]; Setaria viridis, 504 h, read-out: SETVI (Table B8, pre-emergence herbicidal activity)) | pest or weed control at 320 g/ha ([16]; Echinochloa crus-galli, 504 h, read-out: Pre-emergence action against ECHCG (herbicidal activity)) | pest or weed control at 320 g/ha ([17]; Ipomoea purpurea, 504 h) | pest or weed control at 80 g/ha ([18]; Amaranthus retroflexus, 504 h, read-out: Post-emergence action against AMARE (herbicidal action in percent)) | pest or weed control at 320 g/ha ([19]; Tripleurospermum inodorum, 504 h) | pest or weed control at 320 g/ha ([20]; Amaranthus retroflexus, 504 h, read-out: Pre-emergence action against AMARE (herbicidal activity)) | pest or weed control at 80 g/ha [22] | pest or weed control at 320 g/ha ([23]; Alopecurus myosuroides, 504 h, read-out: Pre-emergence action against ALOMY (herbicidal activity in percent)) | pest or weed control at 80 g/ha ([24]; Echinochloa crus-galli, 504 h, read-out: Post-emergence action against ECHCG (herbicidal action in percent)) | pest or weed control at 320 g/ha ([25]; Avena fatua, 504 h, read-out: Pre-emergence action against AVEFA (herbicidal activity)) | pest or weed control at 320 g/ha ([26]; Viola tricolor, 504 h)
80%: pest or weed control at 80 g/ha [5] | pest or weed control at 320 g/ha ([21]; Lolium rigidum, 504 h, read-out: Pre-emergence action against LOLRI (herbicidal activity))
90%: pest or weed control at 320 g/ha ([4]; Hordeum murinum, 504 h) | pest or weed control at 80 g/ha ([11]; Cyperus esculentus, 504 h, read-out: Post-emergence action against CYPES (herbicidal action in percent))

Cn1nnnc1NC(=O)c1ccc(C(F)(F)F)c(C(=O)C2CCCCC2)c1Cl [1-155]
80%: Post-emergence action against MATIN (herbicidal action in percent) [7] | Pre-emergence action against AMARE (herbicidal activity) [20]
80: Post-emergence action against PHBPU [1] | Post-emergence action against STEME [2]
90%: Pre-emergence action against DIGSA (herbicidal activity) [27] | Pre-emergence action against STEME [8] | Post-emergence action against ABUTH (herbicidal action in percent) [14] | Post-emergence action against AMARE (herbicidal action in percent) [18] | Pre-emergence action against MATIN [19]
100%: Pre-emergence action against ABUTH (herbicidal activity) [6] | Pre-emergence action against VIOTR [26]

CCn1nnnc1NC(=O)c1ccc(C(F)(F)F)c(C(=O)C2CCCCC2)c1Cl [2-155]
90%: Pre-emergence action against DIGSA (herbicidal activity) [27]
80%: Pre-emergence action against VERPE [13] | Pre-emergence action against ECHCG (herbicidal activity) [16] | Post-emergence action against AMARE (herbicidal action in percent) [18]
100%: Pre-emergence action against ABUTH (herbicidal activity) [6] | Pre-emergence action against STEME [8] | Pre-emergence action against MATIN [19] | Pre-emergence action against AMARE (herbicidal activity) [20] | Pre-emergence action against VIOTR [26]

CCCn1nnnc1NC(=O)c1ccc(C(F)F)c(C(=O)C2CC2)c1Cl [3-168]
90%: Pre-emergence action against HORMU [4] | Post-emergence action against CYPES (herbicidal action in percent) [11] | Post-emergence action against AVEFA (herbicidal action in percent) [28]
100%: Pre-emergence action against ABUTH (herbicidal activity) [6] | Post-emergence action against MATIN (herbicidal action in percent) [7] | Pre-emergence action against STEME [8] | Post-emergence action against SETVI (herbicidal action in percent) [9] | Pre-emergence action against VERPE [13] | Post-emergence action against ABUTH (herbicidal action in percent) [14] | SETVI (Table B8, pre-emergence herbicidal activity) [15] | Pre-emergence action against ECHCG (herbicidal activity) [16] | Pre-emergence action against PHBPU [17] | Post-emergence action against AMARE (herbicidal action in percent) [18] | Pre-emergence action against MATIN [19] | Pre-emergence action against AMARE (herbicidal activity) [20] | Pre-emergence action against LOLRI (herbicidal activity) [21] | Pre-emergence action against ALOMY (herbicidal activity in percent) [23] | Post-emergence action against ECHCG (herbicidal action in percent) [24] | Pre-emergence action against AVEFA (herbicidal activity) [25] | Pre-emergence action against VIOTR [26]
80%: Pre-emergence action against POLCO [12]
100: Post-emergence action against PHBPU [1] | Post-emergence action against STEME [2] | Post-emergence action against VIOTR [10]

CCCn1nnnc1NC(=O)c1ccc(C(F)(F)F)c(C(=O)C2CCCCC2)c1SC [3-281]
80%: Pre-emergence action against DIGSA (herbicidal activity) [27] | Post-emergence action against AMARE (herbicidal action in percent) [18] | Pre-emergence action against AMARE (herbicidal activity) [20]
100%: Pre-emergence action against ABUTH (herbicidal activity) [6] | Pre-emergence action against VIOTR [26]
90%: Pre-emergence action against STEME [8]
